In US9308268B2, “Solubilized benzoyl peroxyde acne” (TRANSDERMAL CORP, priority 2005, dated 2016):

How the values were obtained:
[1] = cited from earlier work
[2] = Solubility of benzoyl peroxide; format: physicochemical; conditions: by weight of the solubilized benzoyl peroxide topical formulation
Description: Benzoyl peroxide is a crystalline solid with a melting point of 103° C. to 106° C., and is insoluble in water.
Benzoyl peroxide is soluble in organic solvents, but most organic solvents are toxic and therefore not suitable for pharmaceutical/cosmetic use. Polar organic solvents such as acetone and ethanol are less toxic, but the flammability of these solvents as well as the ability of these solvents to irritate and strip the skin of its protective mantle limit their use in pharmaceutical or cosmetic compositions.
In contrast to prior art formulations of benzoyl peroxide, the benzoyl peroxide will actively go into solution at levels as high as 10% by weigh of the solubilized benzyl peroxide topical formulation. Furthermore, the solubilized benzoyl peroxide topical formulation is translucent and has increased efficacy.

## O=C(OOC(=O)c1ccccc1)c1ccccc1 [Benzoyl peroxide]
[1]; organic solvents
  solubility in organic solvents: soluble
[1]; water
  solubility in water: insoluble
[2]
  level at which benzoyl peroxide goes into solution: ≤ 10%
